The values below come from ChEMBL document CHEMBL1146849, “Identification of a lead pharmacophore for the development of potent nuclear receptor modulators as anticancer and X syndrome disease therapeutic agents” (Bioorg Med Chem Lett, 2006).

The source made the active and inactive calls. The calls are words filed in the database; no cut-off is given here.

In experiment [1] the target is T1, Bile acid receptor (Homo sapiens) (UniProt Q96RI1).
T1 sequence (whole entry): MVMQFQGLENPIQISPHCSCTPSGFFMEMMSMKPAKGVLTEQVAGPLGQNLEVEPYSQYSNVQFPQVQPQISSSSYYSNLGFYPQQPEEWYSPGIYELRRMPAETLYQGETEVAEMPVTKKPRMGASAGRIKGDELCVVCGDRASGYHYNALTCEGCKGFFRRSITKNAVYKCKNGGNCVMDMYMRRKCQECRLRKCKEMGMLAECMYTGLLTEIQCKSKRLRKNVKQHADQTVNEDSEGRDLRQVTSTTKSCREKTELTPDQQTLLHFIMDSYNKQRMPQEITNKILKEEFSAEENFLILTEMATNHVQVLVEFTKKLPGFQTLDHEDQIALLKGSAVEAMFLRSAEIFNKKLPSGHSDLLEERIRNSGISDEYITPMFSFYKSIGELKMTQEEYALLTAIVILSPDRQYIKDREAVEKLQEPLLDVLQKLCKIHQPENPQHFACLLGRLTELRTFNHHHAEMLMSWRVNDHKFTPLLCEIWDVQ
Put plainly: Agonist activity at FXR in HepG2 cells by luciferase activity relative to CDCA at 10 uM. It counts as functional, cell-based.

In experiment [2] the test system is Androgen receptor (Homo sapiens), P10275 [T878A]. Nature of the experiment: Agonist activity at human androgen receptor T877A mutant relative to control. It counts as functional.
Androgen receptor (Homo sapiens), P10275 [T878A], sequence (P10275 whole entry T878A): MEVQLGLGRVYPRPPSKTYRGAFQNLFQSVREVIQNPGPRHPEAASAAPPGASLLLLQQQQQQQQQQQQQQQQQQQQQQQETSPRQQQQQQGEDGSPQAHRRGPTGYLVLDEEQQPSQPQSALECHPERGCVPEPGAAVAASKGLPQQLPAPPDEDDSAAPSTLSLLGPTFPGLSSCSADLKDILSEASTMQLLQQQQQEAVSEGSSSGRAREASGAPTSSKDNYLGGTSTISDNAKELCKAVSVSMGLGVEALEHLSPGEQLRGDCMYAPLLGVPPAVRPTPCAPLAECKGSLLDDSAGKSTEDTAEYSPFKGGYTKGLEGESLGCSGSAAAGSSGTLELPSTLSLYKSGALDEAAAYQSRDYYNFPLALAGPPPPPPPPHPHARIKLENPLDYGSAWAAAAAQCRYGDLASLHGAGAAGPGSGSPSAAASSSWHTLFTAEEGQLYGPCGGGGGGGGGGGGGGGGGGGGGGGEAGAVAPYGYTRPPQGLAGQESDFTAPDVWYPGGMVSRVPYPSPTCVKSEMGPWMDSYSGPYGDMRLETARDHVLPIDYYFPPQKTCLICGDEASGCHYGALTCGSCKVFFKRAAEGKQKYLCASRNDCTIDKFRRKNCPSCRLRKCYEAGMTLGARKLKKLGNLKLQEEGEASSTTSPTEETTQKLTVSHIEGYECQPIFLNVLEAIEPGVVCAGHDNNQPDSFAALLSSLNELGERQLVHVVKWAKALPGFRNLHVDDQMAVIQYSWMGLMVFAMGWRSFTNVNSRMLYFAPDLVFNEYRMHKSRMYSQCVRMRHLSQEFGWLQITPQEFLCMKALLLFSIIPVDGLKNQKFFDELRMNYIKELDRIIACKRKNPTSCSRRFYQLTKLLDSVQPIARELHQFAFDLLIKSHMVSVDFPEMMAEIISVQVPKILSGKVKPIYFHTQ

As to `Cc1ccc(C(=O)N2Cc3ccccc3C[C@H]2CO)cc1F`, in experiment [1], the outcome was Active. In the case of `Cc1cc(C)cc(C(=O)N2Cc3ccccc3C[C@H]2CO)c1`, in experiment [2], the result was inactive. As for `O=C(c1ccc(C(O)(C(F)(F)F)C(F)(F)F)cc1)N1Cc2ccccc2C[C@H]1CO`, the result in experiment [2] was inactive.
